# Assay results as given in ChEMBL document CHEMBL4190251, “Design and synthesis of conformationally constrained salinomycin derivatives” (Eur J Med Chem, 2017).
# How the values were obtained:
# HT-29 [1] = experiment: Antiproliferative activity against human HT-29 cells at 10 uM after 48 hrs by MTT assay relative to control; assay type: functional
# HT-29 [2] = experiment: Antiproliferative activity against human HT-29 cells after 48 hrs by MTT assay; assay type: functional, cell-based; conditions: HT-29, 48 h
IC50 (HT-29 [2]),Structure (SMILES),Activity (HT-29 [1])
,CC[C@@H](C(=O)[C@@H](C)[C@@H](O)[C@H](C)[C@@H]1O[C@@H]([C@@H](CC)C(=O)O)CC[C@@H]1C)[C@H]1O[C@]2(C=C[C@@H](O)[C@]3(CC[C@@](C)([C@H]4CC[C@](O)(CC)[C@H](C)O4)O3)O2)[C@H](C)C[C@@H]1C [SALINOMYCIN],76.1%
7.64 µM,CC[C@H]1C(=O)[C@@H](C)[C@@H](O)[C@H](C)[C@@H]2O[C@H](CC[C@@H]2C)[C@@H](CC)C(=O)OC/C=C/CCC(=O)O[C@@H]2CC[C@]3(O[C@H]1[C@@H](C)C[C@H]3C)O[C@@]21CC[C@@](C)([C@H]2CC[C@](O)(CC)[C@H](C)O2)O1,67%
> 10 µM,CC[C@H]1C(=O)[C@@H](C)[C@@H](O)[C@H](C)[C@@H]2O[C@H](CC[C@@H]2C)[C@@H](CC)C(=O)OC/C=C/C(=O)O[C@@H]2CC[C@]3(O[C@H]1[C@@H](C)C[C@H]3C)O[C@@]21CC[C@@](C)([C@H]2CC[C@](O)(CC)[C@H](C)O2)O1,13.6%
,C=CCOC(=O)[C@H](CC)[C@H]1CC[C@H](C)[C@H]([C@@H](C)[C@H](O)[C@H](C)C(=O)[C@H](CC)[C@H]2O[C@]3(CC[C@@H](OC(=O)C=C)[C@]4(CC[C@@](C)([C@H]5CC[C@](O)(CC)[C@H](C)O5)O4)O3)[C@H](C)C[C@@H]2C)O1,<10%
,C=CCCC(=O)O[C@@H]1CC[C@]2(O[C@H]([C@@H](CC)C(=O)[C@@H](C)[C@@H](O)[C@H](C)[C@@H]3O[C@@H]([C@@H](CC)C(=O)OCC=C)CC[C@@H]3C)[C@@H](C)C[C@H]2C)O[C@@]12CC[C@@](C)([C@H]1CC[C@](O)(CC)[C@H](C)O1)O2,<10%
